Results: US8093393B2, “Cationic ceramides, and analogs thereof, and their use for preventing or treating cancer” (MUSC Foundation for Research Development, priority 2004, dated 2012)

Key:
[1] = tested on: MCF7 breast carcinoma cells; experiment: Cell proliferation and viability, Trypan blue exclusion assay; type: cell-based; conditions: 48 h
Procedure, shortened: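 Cells seeded overnight in 10% FCS, then exposed to LCL compounds at 0-20 μM in ethanol (below 0.1%) for 48 h. Viable cell numbers counted by Trypan blue exclusion under light microscope, expressed as percentage of untreated controls; duplicate samples, two or three independent experiments.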

[2] = tested on: UM-SCC-1 cells; experiment: MTT cell survival assay; type: cell-based, human; conditions: UM-SCC-1, 48 hr; read-out: IC50, growth
Method: Cell lines and culture conditions. […] Cells were grown in DMEM containing 10% FCS and 1% penicillin/streptomycin at 37° C. in 5% CO2. The Wi-38 human lung fibroblasts were obtained from American Type Culture Collection, and were grown in DMEM as described above. Adult human epidermal keratinocytes were purchased from Cascade Biologics, and were maintained in EpiLife medium with growth supplements as described by the manufacturer.
MTT cell survival assay and isobologram studies. […] Triplicate wells were used for each treatment. The final concentration of DMSO (a solvent for conventional ceramides, GMZ and DOX) in the growth medium was less than 0.1% (v/v) which has no effect on cell growth and survival. Pyridinium ceramides were dissolved in sterile water or growth medium. In short, after cells (5-10×10^3/well) were seeded in 96-well-plates for 24 hr, they were treated with increasing concentrations of ceramide analogs for an additional 48 or 96 hr. For combination treatments, ceramides and chemotherapeutic agents (gemcitabine (GMZ) or doxorubicin (DOX)) were added to the growth medium simultaneously during treatment. Isobologram plots were then constructed using IC50 values of the two agents alone or in combination obtained from MTT assays. […]

[3] = tested on: telomeres; experiment: Telomere length (TRF) in tumor tissues; type: in vivo, human; conditions: versus untreated controls
Excerpt: (§1) FIG. 29. […] In (B), DNA samples obtained from tumors treated with GMZ (G), L-t-C6-Pyr-Cer (Cer), and the combination of L-t-C6-Pyr-Cer with GMZ (G/C, lanes 2-4, respectively) were compared to that of untreated (U) tumors (lane 1). Lanes 5 and 6 contain DNA samples with low (L) and high (H) molecular weight (3.9 and 10.2 kb, respectively) telomeres. In (D) The levels of hTERT protein in samples obtained from tumors treated with GMZ (G), L-t-C6-Pyr-Cer (Cer), and the combination of L-t-C6-Pyr-Cer with GMZ (G/Cer, lanes 2-4, respectively) were determined by Western blot analysis using rabbit polyclonal anti-hTERT antibody, and compared to that of untreated (U) tumors (lane 1). Lanes 5 and 6 contain samples from telomerase positive (+) and negative (−) extracts. Beta-actin levels of these samples were used as loading controls (lanes 1-6, lower panel). The data shown are representative of two independent trials, and error bars represent standard deviations.
Analysis of telomere length in tumor tissues. The measurement of telomere length was performed in total genomic DNA samples isolated from tumor tissues of the SCID mice using Telomere Restriction Fragment (TRF) Length measurement kit (Roche) by Southern blotting as described in Sundararaj, et al. J Biol Chem 2004; 279:6152-6162.

[4] = tested on: hTERT; experiment: hTERT mRNA (Q-PCR) and protein (Western blot) in tumor tissues; type: in vivo, human
Excerpt: as §1, with “Lanes 5 and 6 contain samples from telomerase positive (+) and negative (−) extracts. Beta-actin levels of these samples were used as loading controls (lanes 1-6, lower panel). The data shown are representative of two independent trials, and error bars represent standard deviations.” left out
Determination of telomerase activity, hTERT mRNA and protein levels in tumor tissues. Telomerase activity in tissues was measured by the PCR-based telomere repeat amplification protocol (TRAP) using TRAPeze kit (Invitrogen) which includes a 36-bp internal control to allow quantification of activity. The intensity of telomere-specific DNA bands, measured using Quantity One (BioRad) software, were normalized to the intensity of internal control bands for each sample on polyacrylamide gels for quantification. […] The protein levels of hTERT in these tumor tissue extracts (in CHAPS buffer) were determined by Western blot analysis using anti-hTERT rabbit polyclonal antibody (CalBiochem) at 1:1000 dilution. […]

[5] = tested on: HNSCC tumors; experiment: Endogenous ceramide and SM levels in HNSCC tumors, LC/MS; design: species or system SCID mice; conditions: mouse, in vivo
Excerpt: FIG. 28. […] The levels of C14-, C16-, C18-, C24-, C24:1-, dihydro-C16-ceramides, and sphingosine are shown in (A), and C18:1-, C20-ceramides, and dihydro-sphingosine, and sphingosine-1-phosphate levels are shown in (B). The levels of C16-, C22-, C-24 and C24:1-SM levels are shown in (C), and C14-, C18-, C18:1-, C20, C20:1, and C22:1 SM levels are shown in (D).

[6] = tested on: UM-SCC-22A cells; conditions: 1 μM
Method: B) The subcellular accumulation of L-t-C6-Pyr-Cer at 1-48 hr was detected by LC/MS in UM-SCC-22A cells after differential centrifugation, as described in Materials and Methods.
Subcellular fractionation, and the analysis of ceramide subspecies by mass spectroscopy (MS). The sub-cellular accumulation of L-t-C6-Pyr-Cer was analyzed by utilizing normal phase high performance liquid chromatography and mass spectroscopy (LC/MS). […] In short, cells were incubated in a buffer containing 300 mM sucrose, 10 mM Hepes (pH 7.4), 1 mM EDTA and 0.5 mM PMSF for 30 minutes on ice. The cells were then passed through 25-gauge needle for 5 strokes, and centrifuged at 1,000×g for 10 mM, 10,000×g for 10 min, and 100,000×g for 60 min at 4° C., for collection of the nuclei-, mitochondria-enriched fractions, and microsomes, respectively.

[7] = tested on: UM-SCC-14A cells; conditions: read-out: IC50, growth; UM-SCC14A, 48 hr
Method: MTT cell survival assay and isobologram studies. The concentrations of agents that inhibited cell growth by 50% (IC50) were determined from cell survival plots obtained by MTT assays. […] A straight line joining points on x- and y-axes represent the IC50 concentrations of GMZ and L-t-C6-Pyr-Cer alone, and the points representing the IC50 concentrations of the combination of the two agents are represented as scatter plots on the same graphs. […] The experiments were performed as triplicates in at least 3 independent experiments.

SMILES: CCCCCCCCCCCCC/C=C/[C@H](O)[C@H](CO)NC(=O)CCCCC[n+]1ccccc1.[Br-] [LCL124, L-threo-2-N-[6′-(1″-Pyridinium)-hexanoyl]-sphingosine Bromide]
- inhibitory effect on MCF7 cell growth (in words) [1]: caused inhibitory effect on MCF7 cell growth
- IC50 [2]: 1 to 2 µM
- reduction of TRF (telomere) length in tumors [3]: about 500 bp
- hTERT mRNA levels in tumors ([4]; Q-PCR): decreased levels of hTERT mRNA and protein expression
- hTERT protein levels in tumors ([4]; Western blot): decreased levels of hTERT mRNA and protein expression
- effect on endogenous SM levels [5]: no significant changes were observed
- effect on endogenous ceramides in tumor site [5]: did not cause any sustained elevation of endogenous ceramides
- amount in supernatant or pellet of 100,000×g fractions [6]: either not detectable (at 1-6 hr), or minimal (at 12-48 hr)
- level in the 10,000×g (mitochondria enriched) fraction ([6]; 3-48 hr): 1,000-3,000 pmol/0.1 mg protein
- level in the 1,000×g (nuclei enriched) fraction ([6]; 6-48 hr): 250-2,500 pmol/0.1 mg protein
- IC50 [7]: 1 to 2 µM
